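Assay format: 96-well plates, 48-hour exposure. GI50 marks 50% less growth. TGI: total growth inhibition.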
What was measured:
Assay in all cases: DTP human tumour cell line panel, 48 h
NCI-H23 lung = test system: NCI-H23 lung
NCI-H460 lung = test system: NCI-H460 lung
NCI-H522 lung = test system: NCI-H522 lung
NCI/ADR-RES ovarian = test system: NCI/ADR-RES ovarian
OVCAR-3 ovarian = test system: OVCAR-3 ovarian
OVCAR-4 ovarian = test system: OVCAR-4 ovarian
OVCAR-5 ovarian = test system: OVCAR-5 ovarian
OVCAR-8 ovarian = test system: OVCAR-8 ovarian
PC-3 prostate = test system: PC-3 prostate
RPMI-8226 leukemia = test system: RPMI-8226 leukemia
RXF 393 renal = test system: RXF 393 renal
SF-268 CNS = test system: SF-268 CNS
SF-295 CNS = test system: SF-295 CNS
SF-539 CNS = test system: SF-539 CNS
SK-MEL-2 melanoma = test system: SK-MEL-2 melanoma
SK-MEL-28 melanoma = test system: SK-MEL-28 melanoma
SK-MEL-5 melanoma = test system: SK-MEL-5 melanoma
SK-OV-3 ovarian = test system: SK-OV-3 ovarian
SN12C renal = test system: SN12C renal
SNB-19 CNS = test system: SNB-19 CNS
SNB-75 CNS = test system: SNB-75 CNS
SW-620 colon = test system: SW-620 colon
T-47D breast = test system: T-47D breast
TK-10 renal = test system: TK-10 renal
U251 CNS = test system: U251 CNS
UACC-257 melanoma = test system: UACC-257 melanoma
UACC-62 melanoma = test system: UACC-62 melanoma
UO-31 renal = test system: UO-31 renal

N#Cc1c(-c2ccc(Cl)cc2)n(O)c2ccccc12
GI50 (NCI-H23 lung): 2.02 µM | TGI (NCI-H23 lung): 6.9 µM | GI50 (NCI-H460 lung): 2.82 µM | TGI (NCI-H460 lung): > 100 µM | GI50 (NCI-H522 lung): 2.11 µM | TGI (NCI-H522 lung): 6.32 µM | GI50 (NCI/ADR-RES ovarian): 1.43 µM | TGI (NCI/ADR-RES ovarian): 4.2 µM | GI50 (OVCAR-3 ovarian): 2.6 µM | TGI (OVCAR-3 ovarian): 6.39 µM | GI50 (OVCAR-4 ovarian): 3.01 µM | TGI (OVCAR-4 ovarian): > 100 µM | GI50 (OVCAR-5 ovarian): 4.08 µM | TGI (OVCAR-5 ovarian): > 100 µM | GI50 (OVCAR-8 ovarian): 2.65 µM | TGI (OVCAR-8 ovarian): 8.78 µM | GI50 (PC-3 prostate): 2.85 µM | TGI (PC-3 prostate): 20.2 µM | GI50 (RPMI-8226 leukemia): 1.6 µM | TGI (RPMI-8226 leukemia): 6.48 µM | GI50 (RXF 393 renal): 1.8 µM | TGI (RXF 393 renal): 5.84 µM | GI50 (SF-268 CNS): 2.6 µM | TGI (SF-268 CNS): 25.5 µM | GI50 (SF-295 CNS): 2.33 µM | TGI (SF-295 CNS): 6.09 µM | GI50 (SF-539 CNS): 2.58 µM | TGI (SF-539 CNS): 9.83 µM | GI50 (SK-MEL-2 melanoma): 1.46 µM | TGI (SK-MEL-2 melanoma): 5.46 µM | GI50 (SK-MEL-28 melanoma): 1.42 µM | TGI (SK-MEL-28 melanoma): 26.4 µM | GI50 (SK-MEL-5 melanoma): 0.557 µM | TGI (SK-MEL-5 melanoma): 2.06 µM | GI50 (SK-OV-3 ovarian): 2.17 µM | TGI (SK-OV-3 ovarian): 5.16 µM | GI50 (SN12C renal): 3.07 µM | TGI (SN12C renal): > 100 µM | GI50 (SNB-19 CNS): 2.71 µM | TGI (SNB-19 CNS): 80.4 µM | GI50 (SNB-75 CNS): 1.21 µM | TGI (SNB-75 CNS): 4.44 µM | GI50 (SW-620 colon): 0.996 µM | TGI (SW-620 colon): 13.2 µM | GI50 (T-47D breast): 2.88 µM | TGI (T-47D breast): 11.1 µM | GI50 (TK-10 renal): 3.64 µM | TGI (TK-10 renal): 9.16 µM | GI50 (U251 CNS): 1.9 µM | TGI (U251 CNS): 7.06 µM | GI50 (UACC-257 melanoma): 2.27 µM | TGI (UACC-257 melanoma): 6.31 µM | GI50 (UACC-62 melanoma): 2.79 µM | TGI (UACC-62 melanoma): 12.3 µM | GI50 (UO-31 renal): 2.6 µM | TGI (UO-31 renal): 9.24 µM

From PubChem BioAssay (NCI)
